Results taken from patent publication US10081660B2, “Polynucleotide, polypeptide with immunosuppressive activity, expression cassette, expression vector, host cell, pharmaceutical composition, methods for producing a polypeptide with immunosuppressive activity and for preventing or treating conditions that require immunosuppression, and use of a …” (FUNDAÇÃO BUTANTAN, priority 2013, dated 2018).
Ends that are not written are not given here.

What was measured:
HIII mice = experiment: Immunosuppressive activity against soluble antigen (human gamma globulin, HGG), anti-HGG antibodies by ELISA; type: in vivo; conditions: for suppression of anti-HGG antibody production: single 3 μg dose intraperitoneally, HGG on Al(OH)3 after 24 hours
Method: The immunosuppressive activity can also be evaluated against a soluble antigen, such as human gamma globulin (HGG), adsorbed in aluminum hydroxide, and the antibodies titer determined by ELISA.
Titers were determined by ELISA and calculated considering the highest dilution of experimental sera whose O.D. (optical density) was five times higher than those obtained for normal serum at the same dilution.
The immunosuppressive activity of the synthetic polypeptide P2 (SEQ ID NO: 5) and P6 (SEQ ID NO: 9) was evaluated against HGG, taking into account immunosuppression time after preventive treatment and antigen inoculation. In all protocols, animals received a single dose of the tested polypeptides. In this experiment, the HIII mice (5 animals/group) were treated intraperitoneally with 3 μg of P6 or 3 μg of P2, and after 24 hours, were immunized intraperitoneally with HGG adsorbed on Al(OH)3 (10 μg/animal); The untreated group was used as a positive control receiving only HGG. […] The negative control was represented by a group called normal serum, i.e., serum from untreated and non-immunized animals. O.D. values obtained from the 1:500 dilution were presented herein as average+standard deviation and were statistically analyzed by Student t test. Values were considered significant when p<0.0001 (***); p<0.005 (**); p<0.05 (*) compared to the positive control, i.e., animals immunized only with HGG. Thus, the HIII mice groups received polypeptides SEQ ID NO: 22, P2 and P6.

Lineage HIII mice [1] = experiment: Immunogenicity analysis: anti-polypeptide antibodies by ELISA after immunization; type: in vivo; conditions: intraperitoneal, bleeding seven days after immunization
Method: The immunogenicity is the capacity of a substance to induce an immune response. To evaluate the immunogenic potential of this invention's polypeptides, the antibody production is determined by the dosage of antibodies titer by ELISA after administration of the present invention polypeptides in potent adjuvants.
Anti-recombinant polypeptide antibodies were measured by ELISA. […] The reactions were developed by the addition of anti-mice-IgG conjugated to peroxidase (1: 7,500), followed by addition of OPD (o-Phenylenediamine dihydrochloride) and H2O2. The reading of the reactions was performed at λ492 nm on a plate spectrophotometer. The titer was established as the highest dilution of experimental sera which optical densities were three times higher than those obtained for normal serum at the same dilution. The data correspond to values obtained from two independent experiments. The significance between different groups (6 animals/group) was p<0.01.
One group was used as a positive control, receiving human gamma globulin (HGG). Bleeding was performed seven days after immunization and antibody production was assessed by ELISA.

[2] = test system: FRET substrate Abz-FRSSRQ EDDnp; experiment: Proteolytic activity on extinguished fluorescence (FRET) substrate, spectrofluorometer; type: biochemical; conditions: 10 μg of polypeptide, fluorescence monitored for 1 hour
human fibrinogen = target: T1, human fibrinogen (Homo sapiens, UniProt P02671+P02675+P02679); experiment: Fibrinogenolytic assay (SDS-PAGE); type: biochemical; conditions: 30 μg human fibrinogen, 5 μg polypeptide, 37° C. for 5 hours; whole L. muta venom as positive control
T1 sequence (P02671 20-629 limits assumed): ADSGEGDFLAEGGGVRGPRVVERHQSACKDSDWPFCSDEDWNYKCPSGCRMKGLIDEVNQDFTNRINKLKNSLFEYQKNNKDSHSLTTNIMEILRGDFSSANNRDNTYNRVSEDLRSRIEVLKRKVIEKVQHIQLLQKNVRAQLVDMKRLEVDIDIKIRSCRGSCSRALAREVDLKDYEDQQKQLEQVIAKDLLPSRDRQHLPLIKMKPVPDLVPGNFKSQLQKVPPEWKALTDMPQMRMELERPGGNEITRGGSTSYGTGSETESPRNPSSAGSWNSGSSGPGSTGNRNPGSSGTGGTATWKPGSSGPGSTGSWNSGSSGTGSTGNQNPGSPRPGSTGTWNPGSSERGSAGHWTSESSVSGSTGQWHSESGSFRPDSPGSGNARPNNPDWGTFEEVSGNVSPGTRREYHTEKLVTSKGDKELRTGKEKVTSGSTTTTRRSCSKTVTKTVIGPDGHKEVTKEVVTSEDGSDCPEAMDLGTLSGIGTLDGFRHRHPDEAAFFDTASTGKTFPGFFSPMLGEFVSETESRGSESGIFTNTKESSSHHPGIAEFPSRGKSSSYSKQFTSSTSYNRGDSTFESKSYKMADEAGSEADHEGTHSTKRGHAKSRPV
T1 sequence (P02675 31-491): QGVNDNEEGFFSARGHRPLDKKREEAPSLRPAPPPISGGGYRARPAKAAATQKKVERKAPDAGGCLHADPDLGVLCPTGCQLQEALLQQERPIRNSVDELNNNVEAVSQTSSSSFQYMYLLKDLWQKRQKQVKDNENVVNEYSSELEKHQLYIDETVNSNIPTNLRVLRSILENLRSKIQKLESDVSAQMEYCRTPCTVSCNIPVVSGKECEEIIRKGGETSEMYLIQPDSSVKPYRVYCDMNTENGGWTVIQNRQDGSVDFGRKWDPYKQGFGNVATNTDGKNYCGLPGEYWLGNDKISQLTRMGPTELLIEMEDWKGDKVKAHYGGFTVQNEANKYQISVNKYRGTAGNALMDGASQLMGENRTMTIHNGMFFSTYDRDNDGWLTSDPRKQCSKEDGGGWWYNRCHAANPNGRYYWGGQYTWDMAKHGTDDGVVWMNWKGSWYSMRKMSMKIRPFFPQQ
T1 sequence (P02679 27-433 limits assumed): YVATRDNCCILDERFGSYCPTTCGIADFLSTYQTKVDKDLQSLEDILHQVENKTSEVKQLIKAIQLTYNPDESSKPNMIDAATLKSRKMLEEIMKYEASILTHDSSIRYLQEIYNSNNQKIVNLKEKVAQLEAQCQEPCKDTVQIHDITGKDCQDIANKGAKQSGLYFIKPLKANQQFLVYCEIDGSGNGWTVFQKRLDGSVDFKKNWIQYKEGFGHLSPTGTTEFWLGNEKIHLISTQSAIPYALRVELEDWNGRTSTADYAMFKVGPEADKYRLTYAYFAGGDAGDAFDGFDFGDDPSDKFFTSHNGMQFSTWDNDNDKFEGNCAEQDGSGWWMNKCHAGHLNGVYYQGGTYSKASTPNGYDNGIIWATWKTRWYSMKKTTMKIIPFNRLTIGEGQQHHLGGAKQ
Method: (§1) Another possibility would be the verification of hydrolysis capacity in known substrates. The proteolytic enzymes of viperidae venoms have, for example, the capacity to hydrolyze the fibrinogen and the C3 component of the human complement system, and verifying this effect is a way of inquiring about the proteolytic activity.
To confirm the absence of enzymatic activity, one experiment was carried out a fibrinogenolytic assay. […] The samples were subjected to SDS-PAGE (10%) analysis under reducing conditions and the gel was stained with Coomassie blue.

[3] = target: C3 component of human complement system (Homo sapiens, UniProt P01024); experiment: Cleavage of C3 component (SDS-PAGE); type: biochemical; conditions: 9 μg human C3, 5 μg polypeptide, 37° C. for 5 hours
Text: as §1
According to the caption on FIG. 14: (A) Human C3; (B) Human C3+venom; (C) Human C3+polypeptide. The samples were subjected to SDS-PAGE (10%) analysis under reducing conditions and the gel was stained with Coomassie blue.

BALB/c mice = experiment: Hemorrhagic activity, method of Kondo et al., intradermal injection; type: in vivo; conditions: 4 mg L. muta venom or 50 mg recombinant polypeptide, skin assessed after 2 hours
Method: (1960, Jpn. J. Med. Sci. Biol. 13: 43-52).
After 2 hours, the animals were euthanized and the skin removed to assess the presence of hemorrhage.

Lineage HIII mice [4] = experiment: Immunosuppressive activity against particulate antigen (sheep erythrocytes), hemagglutination; type: in vivo; conditions: 50 μg intraperitoneally 72 hours before immunization with sheep erythrocytes, […] cells/animal
Method: For the invention's polypeptide immunosuppressive activity analysis, Lineage HIII mice constitutively known as good responder to of antibody production are inoculated, intraperitoneally, and immunized with structurally complex and highly immunogenic antigens, such as sheep erythrocytes, a particulate antigen. The animals' serum is then analyzed regarding its hemagglutination activity: the lower is the hemagglutinating effect; the higher is the immunosuppressive capacity of the evaluated compound. The immunosuppressive activity can also be evaluated against a soluble antigen, such as human gamma globulin (HGG), adsorbed in aluminum hydroxide, and the antibodies titer determined by ELISA.
An untreated group was used as positive control and received only E^S. Samples of 50 μL E^S (2% v/v) were incubated with 50 μL of the sera from immunized animals (serially diluted) in 96 U-bottom well plates for 8 hours at room temperature. As negative control, E^S were incubated with PBS only. Antibody titers were that ones whose higher serum dilutions promoted agglutination of erythrocytes. The data are representative of three independent experiments. The significance between different groups was p<0.01 (FIG. 16).

C3 component of human complement system, sequence (P01024 23-1663): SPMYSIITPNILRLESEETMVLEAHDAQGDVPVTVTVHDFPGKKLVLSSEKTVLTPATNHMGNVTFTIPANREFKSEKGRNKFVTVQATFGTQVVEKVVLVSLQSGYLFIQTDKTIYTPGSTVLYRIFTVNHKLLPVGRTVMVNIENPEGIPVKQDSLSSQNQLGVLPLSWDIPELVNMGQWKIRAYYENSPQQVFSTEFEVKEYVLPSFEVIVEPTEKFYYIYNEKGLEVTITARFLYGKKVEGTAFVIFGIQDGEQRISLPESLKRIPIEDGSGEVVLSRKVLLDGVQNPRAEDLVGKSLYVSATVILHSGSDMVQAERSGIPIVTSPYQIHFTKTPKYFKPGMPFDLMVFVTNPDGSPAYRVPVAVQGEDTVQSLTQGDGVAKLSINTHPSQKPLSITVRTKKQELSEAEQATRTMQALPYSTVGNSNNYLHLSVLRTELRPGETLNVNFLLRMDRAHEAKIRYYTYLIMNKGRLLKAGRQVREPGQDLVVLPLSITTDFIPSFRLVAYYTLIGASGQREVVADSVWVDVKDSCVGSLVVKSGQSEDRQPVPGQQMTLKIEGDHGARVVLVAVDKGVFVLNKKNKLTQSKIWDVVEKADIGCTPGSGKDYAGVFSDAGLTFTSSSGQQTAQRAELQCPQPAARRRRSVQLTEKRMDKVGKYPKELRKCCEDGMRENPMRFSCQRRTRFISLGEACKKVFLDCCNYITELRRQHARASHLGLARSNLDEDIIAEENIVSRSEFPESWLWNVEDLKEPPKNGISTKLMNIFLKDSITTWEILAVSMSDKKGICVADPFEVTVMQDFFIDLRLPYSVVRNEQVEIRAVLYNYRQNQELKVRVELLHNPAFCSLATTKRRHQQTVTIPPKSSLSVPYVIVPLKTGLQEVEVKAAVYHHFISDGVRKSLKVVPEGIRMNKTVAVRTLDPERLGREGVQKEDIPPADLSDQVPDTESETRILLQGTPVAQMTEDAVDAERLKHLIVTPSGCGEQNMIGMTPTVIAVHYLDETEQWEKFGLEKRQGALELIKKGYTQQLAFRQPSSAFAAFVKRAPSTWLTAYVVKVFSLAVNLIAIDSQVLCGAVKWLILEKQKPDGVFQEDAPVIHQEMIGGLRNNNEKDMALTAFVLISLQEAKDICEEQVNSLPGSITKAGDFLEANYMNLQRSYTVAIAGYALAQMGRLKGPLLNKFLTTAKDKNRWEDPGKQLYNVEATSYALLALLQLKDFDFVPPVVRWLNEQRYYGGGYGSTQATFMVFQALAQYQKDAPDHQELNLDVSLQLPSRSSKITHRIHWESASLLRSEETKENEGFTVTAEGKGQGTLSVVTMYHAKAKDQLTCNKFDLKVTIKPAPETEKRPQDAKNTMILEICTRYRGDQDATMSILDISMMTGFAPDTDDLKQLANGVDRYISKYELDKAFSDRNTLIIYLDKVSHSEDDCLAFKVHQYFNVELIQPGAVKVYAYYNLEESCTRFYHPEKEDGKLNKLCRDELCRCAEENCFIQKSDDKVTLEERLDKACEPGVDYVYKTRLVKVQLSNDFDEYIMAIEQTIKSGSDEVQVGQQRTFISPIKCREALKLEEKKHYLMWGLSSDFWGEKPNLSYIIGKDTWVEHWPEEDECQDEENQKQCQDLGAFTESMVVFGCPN

Row | Molecule | suppression of anti-HGG antibody production (HIII mice; after 7 days) | suppression of anti-HGG antibody production (HIII mice; after 13 days) | suppression of anti-HGG antibody production (HIII mice; after 36 days) | immunogenicity (production of antibodies against P6) (Lineage HIII mice [1]; P6 (3 mg)) | inhibition of anti-HGG antibody production (HIII mice; P6 3 μg/animal or recombinant polypeptide 50 μg/animal, HGG in Al(OH)3 after 24 hours) | proteolytic activity on the FRET substrate [2] | hydrolysis of fibrinogen (human fibrinogen) | cleavage of C3 component [3] | hemorrhagic activity (BALB/c mice) | immunogenic potential (production of specific anti-recombinant polypeptide antibodies) (Lineage HIII mice [1]; 50 μg) | hemagglutination by serum of treated animals (antibody response to sheep erythrocytes) (Lineage HIII mice [4])
1 | AIDLADNTIGIAYTGG [P2] | suppression of anti-HGG antibody production was induced | suppression of anti-HGG antibody production was induced | suppression of anti-HGG antibody production was induced |  |  |  |  |  |  |  | 
2 | NAQLLTAID [P6] | suppression of anti-HGG antibody production was induced | suppression of anti-HGG antibody production was induced | suppression of anti-HGG antibody production was induced | did not show immunogenicity | inhibition of anti-HGG antibody production |  |  |  |  |  | 
3 | recombinant polypeptide: SEQ ID NO: 2 plus six histidine residues, T7 phage protein 10 portion and enterokinase site; approximately 30 kDa, expressed in E. coli (protein) MRGSHHHHHHGMASMTGGQQMGRDLYDDDDKDRWGSELFSQKYIELVVVADHGMFTKYNGNLNTIRTRVHEIVNTLNGFYRSLNIHISLTDLEIWSNQDLINVQSAAADTLKTFGEWRERVLLNRISHDNAQLLTAIDLADNTIGIAYTGGMCYPKNSVGIVQDHSPKTLLIAVTMAHELGHNLGMKHDENHCHCSASFCIMPPSLSEGPSYEFSDCSKDYYEMFLTKRKPQCILNKPWYHGIRSLIRLLTKPERKLSWLLPPLSNN |  |  |  |  |  | absence of recombinant polypeptide proteolytic activity | not able to hydrolyze fibrinogen | unable to cleave the C3 component | no hemorrhagic activity | very low or no immunogenic potential | unable to promote hemagglutination
